Source: patent US11311043B2, “Preparation of glucan-based shell-core structure carrier material and its application thereof” (Jiangnan University, priority 2018, dated 2022)

Columns and labels:
[1] = tested on: Intestinal cell; experiment: Intestinal cell experiment: hydrogen peroxide irritation, cell activity by MTT method; type: cell-based; conditions: 2 mM hydrogen peroxide for 2 h, then cultured 4 h
Protocol: Cell experiment: Intestinal cell experiment is performed on a carrying complex. 100 μL of a carrying material-nutritional factor complex dissolved solution is added to a cell culture solution, 2 mM of a hydrogen peroxide solution is added for irritating cells for 2 h, and the cells are continued to be cultured for 4 h. Cell activity is detected by an MTT method.

[2] = Biological stability by oxidation rate POV (potassium thiocyanate peroxide value method); type: physicochemical; conditions: conjugated linoleic acid carried; stability from maximum peroxide value (POV)
Protocol: To better realize the present invention, biological stability is characterized by determining the oxidation rate POV (peroxide value) by applying a potassium thiocyanate POV determining method. POV is calculated through the formula below: […]
c and c0 are the mass of iron in a test sample and a blank sample; m is the mass of CLA; 2 is a conversion factor; and 55.84 is the relative atomic mass of iron. The degree of oxidation of pure nutritional factors serves as control, and the maximum values of the amount of peroxide (POV) in the control and the material are calculated and compared. POV is the amount of peroxide in a first stage product obtained after fat oxidation. Because it cannot be excluded that a small amount of peroxide continues to decompose into small molecular substances under an oxidizing environment, the stability is characterized by: Stability[…](100−100 g CLA maximum value of the amount of peroxide generated by oxidation)/100*100%.

| Molecule | Cell activity % ([1]; 1 μg/ml) [%] | Cell activity % ([1]; 10 μg/ml) [%] | Biological stability [2] [%] |
| --- | --- | --- | --- |
| COC1=C(OC)C(=O)C(C/C=C(\C)CC/C=C(\C)CC/C=C(\C)CC/C=C(\C)CC/C=C(\C)CC/C=C(\C)CC/C=C(\C)CC/C=C(\C)CC/C=C(\C)CCC=C(C)C)=C(C)C1=O [Coenzyme Q10, coenzyme Q10] | 92 ± 3.4 | 97 ± 2.6 |  |
| conjugated linoleic acid [Control 1] |  |  | 58.2 |
